Laboratory results from patent US10183058B2, “Method of preventing or reducing the progression of prostate cancer” (Nymox Corporation, priority 2016, dated 2019).
Ends that are not written are not given here.

Tested on: prostate cancer
Assay: Clinical studies in men with BPH given SEQ ID NO. 66 by intraprostatic injection; incidence of clinically or biopsy detected prostate cancer
Type: in vivo, human (men)
Conditions: 2.5 mg intraprostatic injection; for Incidence of cancer (Gleason Grade >= 7): follow-up up to 6.5 years, compared to known expected incidence of 5-6%
Method: In a series of clinical studies undertaken between 2009 and 2016 a total of 628 men with benign prostatic hyperplasia (BPH) received SEQ ID NO. 66 (Ile-Asp-Gln-Gln-Val-Leu-Ser-Arg-Ile-Lys-Leu-Glu-Ile-Lys-Arg-Cys-Leu), 2.5 mg given by intraprostatic injection into the transition zone of the prostate to treat the symptoms of BPH and were subsequently followed clinically and by laboratory testing. After intervals up to 6.5 years after injection, all available patients were followed urologically at specialized clinics with investigation of BPH symptoms and events of disease progression and safety assessments. All cases of clinically or biopsy detected prostate cancer were documented. The incidence of new biopsy or surgically proven prostate cancer after 12 months and overall was compared to the incidence of detected prostate cancer in large long-term clinical trials in the medical literature. Although a) the treatments were for BPH; b) the injections were directed at the central part of the prostate where cancer is less common; and c) the injections consisted of only a single or two injection(s) of SEQ ID NO. […]
In a series of clinical studies undertaken between 2009 and 2016, a total of 816 men with benign prostatic hyperplasia (BPH) received SEQ ID NO. […] All cases of clinically or biopsy detected prostate cancer were documented. The incidence of new biopsy or surgically proven prostate cancer after 12 months and overall was compared to the incidence of detected prostate cancer in the patients receiving the sterile saline solution (control). […]
In a series of clinical studies undertaken between 2009 and 2016 a total of 628 men with benign prostatic hyperplasia (BPH) received SEQ ID NO. […] All cases of clinically or biopsy detected prostate cancer were documented. The incidence of new biopsy or surgically proven prostate cancer of Gleason Grade>=7 was compared to the incidence of detected prostate cancer in large long-term clinical trials in the medical literature. […]

IDQQVLSRIKLEIKRCL [SEQ ID NO: 66]
incidence of prostate cancer (after 12 months and overall) (compared to known expected incidence of 2-25%): 0-1.3%
Incidence of cancer (Gleason Grade >= 7): <0.3%
Incidence of cancer (Gleason Grade >= 7) (listed as SEQ ID NO. 66): < 0.3%
